Data published in publication PMC6155913, “Reaction of 3-Amino-1,2,4-Triazole with Diethyl Phosphite and Triethyl Orthoformate: Acid-Base Properties and Antiosteoporotic Activities of the Products” (Molecules : A Journal of Synthetic Chemistry and Natural …, 2017).
Read-outs that look alike come from different tables or passages of the source. Each block holds one compound with its values, some of them ahead of it.

Columns and labels:
[1] = Protonation constants by pH-UV (UV-Vis) titration; type: physicochemical; settings: 0.1 M KCl, 25 °C, [L] = 7 × 10^−5 M, error 1σ
Protocol: (§1) The acid-base properties of compounds 1 and 2 were determined to understand their behaviour in aqueous solutions. These studies were performed using potentiometry prompted by pH-UV titration studies and, for compound 1, pH*-NMR titration studies (pH* = pH uncorrected for the isotopic effect).
The results of the potentiometric studies are supported by spectroscopic determination of the pK values of the studied compounds. The results, obtained from electronic spectra generated in the HypSpec program for the detected species, are presented in Table 2 and Figure S1. […] For compound 1, the band at approximately 215 nm was already present under a very acidic pH value (pH 1.57) (Figure 4). This band is assigned to the protonated 1,2,4-triazole. The band underwent a bathochromic shift to 230 nm when the pH rises, which is assigned to the H4L → H3L^− + H^+ deprotonation process at a pK4 of 4.22 or 4.16 (estimated potentiometrically or spectrophotometrically, respectively). This was the biggest change in absorption for the spectroscopic determination by UV spectrophotometry. This change was the reason for assigning the pK4 value to the deprotonation of 1,2,4-triazole. Adequate changes occur for the spectra of compound 2. […] Generally, spectroscopic titrations (see Figure S23 Supplementary Materials) are in a good agreement with potentiometric titrations and provide similar pK values.
Absorption spectra for the compounds were collected using a Varian Cary 50 spectrophotometer (Varian, Mulgrave, Victoria, Australia) in Quartz Hellma curvets with a 1 cm optical path. The solutions were prepared by dissolving the appropriate concentration of ligands ([L] = 7 × 10^−5 mol·dm^−3) in 0.004 M HCl with 0.1 M ionic strength (KCl). The background electrolyte was used as a baseline reference. Solution pH was changed manually by adding small amounts of concentrated potassium hydroxide and checked the pH using the 913 Metrohm pH meter equipped with a combined glass electrode (Metrohm 6.0224.100, Herisau, Switzerland). The protonation constants and spectral deconvolution were refined using the least squares fitting program HypSpec. Factor analysis by the HypSpec software (http://www.hyperquad.co.uk/) was implemented to characterize the number of species present in the solution.

[2] = tested on: mouse macrophage-like J774E cells; assay: Antiproliferative activity, MTT assay; type: cell-based; settings: J774E macrophages, 72 h exposure
Protocol: To screen for potential antiosteoporotic activity of the bisphosphonates, their antiproliferative activity towards in vitro cell cultures was determined. J774E macrophages and osteoclasts are both derived from haematopoietic lineage and are highly endocytic and capable of demineralizing bone particles. Therefore, they are models for studies on the influence of bisphosphonates on the proliferation and activity of […]. For this purpose, mouse macrophage-like J774E cells, originating from the same precursors as the osteoclasts, were used. Such cells are well recognized for being sensitive to bisphosphonates, which likely act by inducing apoptosis in the cells. The J744E cell line was obtained from a cell bank at the Ludwik Hirszfeld Institute of Immunology and Experimental Therapy, Polish Academy of Sciences.
This experiment was performed according to a previously published procedure. To use the cell line, it is necessary to first thaw the cells using a water bath at 37 °C and gentle stirring. The cells were placed into the culture medium. This line was passaged 2 times a week in RPMI (growth medium consisting of 10% FBS, 100 μg/mL streptomycin, 100 U/mL penicillin and 2 mM glutamine) in Petri dishes. The cell growth was monitored under a microscope, and part of the material was used in the next stage of the experiment. Then, the cells were separated from the bottom (the surface proteins present on the plasma membrane allowing adhesion were destroyed) and were collected from the culture vessel. Then, in a Bürker chamber, the cell density was counted using a drop of cell suspension in a mixture ratio of 1:1 with trypan blue.
Then, a 96-well microtiter plate assay was performed with 100 μL of cells (5 × 10^4/mL) in a cultivation solution followed, after 24 h, by the addition of 100 μL of a solution of the tested compound (10^−3, 10^−4, 10^−5, or 10^−6 M) in the same medium. Plates were incubated at 37 °C in a humidified atmosphere saturated with 5% CO2. The in vitro cytotoxicities of all agents were examined by colorimetric MTT assay after 72 h of exposure of the cultured cells to varying concentrations of the tested compounds [32]. Briefly, 20 μL of the MTT solution (MTT: 3-(4,5-dimethylthiazol-2-yl)-2,5-diphenyl tetrazolium bromide) was added to each well and incubated for 4 h. After the incubation period was completed, 80 μL of the lysing mixture was added to each well (lysing mixture: 225 mL dimethylformamide, 67.5 g sodium dodecyl sulfate and 275 mL of distilled water). The optical densities of the samples were determined after 24 h using a Multiskan RC photometer (Labsystems, Helsinki, Finland) at 570 nm.

[3] = Protonation constants by potentiometric titration; type: physicochemical; settings: Potentiometry, 0.1 M KCl, 25 °C, [L] = 1 × 10^−3 M, error 1σ
Protocol: as §1
The titration studies of the compounds were carried out in double-distilled water using a Metrohm 809 Titrando system equipped with a combined glass electrode (Metrohm 6.0224.100) which was calibrated daily for hydrogen concentration using HCl (Merck, Warsow, Poland) (0.004 M) according to the procedure of Irving et al.. The ionic strength was fixed at I = 0.1 M with KCl (POCh). Alkali, CO2-free 0.1017 M KOH solution (POCh) was standardized by titration with potassium hydrogen phthalate (Merck). The ionic product of water under the experimental conditions was 10^−13.77 mol^2·dm^−6. The purity and exact concentration of each ligand were determined by the method of Gran. The titrations were carried out on 2.0 mL samples in a thermostatted cell at 25 ± 0.2 °C under a stream of Ar. The HYPERQUAD2013 computer program was applied to calculate the protonation constants. Triplicate titrations of each ligand (177–222 points) in a concentration of 1.0 × 10^−3 mol·dm^−3 were performed and used for the calculations. The distribution curves of the protonated species of the compounds (marked as L) as a function of pH were calculated using the HySS2009 program.

[4] = cited from earlier work

pK1(HL) amine [1]: 11.68(2)
pK2(H2L) phosphonate [1]: 9.32(5)
pK3(H3L) phosphonate [1]: 6.15(6)
pK4(H4L) triazole [1]: 4.16(6)
pK5(H5L) phosphonate [1]: 0.67(6)
pK4(H4L) triazole ([1]; listed as compound 1): 4.16
pK1(HL) amine [3]: 11.52(3)
pK2(H2L) phosphonate [3]: 9.62(3)
pK3(H3L) phosphonate [3]: 6.54(4)
pK5(H5L) phosphonate [3]: 1.48(4)
pK2(H2L) phosphonate ([3]; listed as compound 1): 9.62
pK3(H3L) phosphonate ([3]; listed as compound 1): 6.54
pK4(H4L) triazole ([3]; listed as compound 1): 4.22
pK5(H5L) phosphonate ([3]; listed as compound 1): 1.48
Compound: O=P(O)(O)C(Nc1nc[nH]n1)P(=O)(O)O [Compound 1, 1,2,4-Triazolyl-3-yl-Aminomethylenebisphosphonic Acid]
IC50 [2]: 25 µM
IC50 ([2]; Mus musculus, Macrophage, 72 h): 24.9 ± 5.17 µM

Compound: OCCCn1cc(-c2ccccn2)nn1 [3-(4-(pyridine-2-yl)-1H-1,2,3-triazol-1-yl-propan-1-ol]
pK of triazole ([4]; 1,2,3-triazole-pyridines, previously reported): 3.40

Compound: O=P(O)(O)C(NC1CCCCCC1)P(=O)(O)O [incadronic acid, reference compound]
IC50 ([2]; Mus musculus, Macrophage, 72 h): 47.9 ± 1.39 µM

pK2(H2L) phosphonate [1]: 9.56(2)
pK3(H3L) phosphonate [1]: 5.90(2)
pK4(H4L) triazole [1]: 3.32(2)
pK4(H4L) triazole ([1]; listed as compound 2): 3.32
pK1(HL) amine [3]: 10.81(1)
pK2(H2L) phosphonate [3]: 9.43(1)
pK3(H3L) phosphonate [3]: 6.73(1)
pK5(H5L) phosphonate [3]: 1.69(1)
Compound: CCn1cnc(NC(P(=O)(O)O)P(=O)(O)O)n1 [Compound 2]
IC50 ([2]; Mus musculus, Macrophage, 72 h): 30.6 ± 4.64 µM

Compound: O=P(O)(O)C(O)(Cn1ccnc1)P(=O)(O)O [zoledronic acid, reference compound]
IC50 ([2]; Mus musculus, Macrophage, 72 h): 24.5 ± 2.23 µM

Compound: Nc1nc[nH]n1 [3-amino-1,2,4-triazole]
pK of triazole ([4]; substituted triazole, previously reported): 4.20

Compound: c1c[nH]nn1 [1,2,3-triazole]
pK of triazole ([4]; unsubstituted triazole): 9.26

Compound: c1nc[nH]n1 [1,2,4-triazole]
pK of triazole ([4]; unsubstituted triazole): 9.95
